Data reported in paper PMC3016957, “Identification of Myotropic Neuropeptides from the Brain and Corpus Cardiacum-Corpus Allatum Complex of the Beetle, Zophobas atratus” (Journal of Insect Science, 2010).
Entries after “also recorded” stand apart in the source; their conditions may differ.

What was measured:
[1] = system: semi-isolated Z. atratus heart; experiment: semi-isolated heart bioassay (video microscopy, continuously perfused heart); design: species or system Zophobas atratus; conditions: synthetic peptide 1×10^-9 M in saline, semi-isolated adult Z. atratus heart, n = 3–8 (Figure 8)
Experimental: All HPLC fractions were re-suspended in 100 µl of T. molitor saline (274 mM NaCl, 19 mM KCl, 9 mM CaCl2, 5 mM glucose, and 5 mM HEPES, pH 7.0), to a concentration of 1 brain or CC/CA equivalent, and assayed in vitro using a semi-isolated Z. atratus heart prepared according to Gäde and Rosinski ([1990]). In the bioassay, the video microscopy technique and the computer-based method of data acquisition and analysis were used to study the action of the fractions on continuously perfused heart preparations as described previously ([Marciniak et al. 2008]). The activities of tested fractions are presented as percentage changes in the control frequency of the heart contraction.
Synthetic peptides were dissolved in saline to yield a stock solution of 1 mM and were stored at -30 °C. Working dilutions (1×10^-9 M) were made from the stock solution in saline.

heart of T. molitor = conditions: cited from earlier work
Description: The most prominent ion signal (1257.8) in both the brain and CC/CA corresponds to leucomyosuppressin, a member of the FMRFamide family first characterized from the cockroach L. maderae ([Holman et al. 1986a]). […] These peptides are pleiotropic as their effects on insects include the modulation of muscle contractile activity ([Predel and Nachman 2001]; [Rosinski 1995]).

heart muscles in beetles = conditions: synthetic peptide; ref Rosinski 1995; cited from earlier work
Experimental: All HPLC fractions were re-suspended in 100 µl of T. molitor saline (274 mM NaCl, 19 mM KCl, 9 mM CaCl2, 5 mM glucose, and 5 mM HEPES, pH 7.0), to a concentration of 1 brain or CC/CA equivalent, and assayed in vitro using a semi-isolated Z. atratus heart prepared according to Gäde and Rosinski ([1990]). In the bioassay, the video microscopy technique and the computer-based method of data acquisition and analysis were used to study the action of the fractions on continuously perfused heart preparations as described previously ([Marciniak et al. 2008]). The activities of tested fractions are pre ... || An AKH (Tenmo-AKH: pELNFSPNWa) had previously been identified from the CC of both T. molitor and Z. atratus (formerly Z. rugipes) ([Gäde and Rosinski 1990]), whereas two AKHs (pELNFSTDWa and pELNFTPNWa) are present in T. castaneum ([Audsley and Weaver, 2008]; [Gäde et al 2008]). From mass analysis of Z. atratus CC, only AKH was identified by the precursor ions 1009.7 and 1025.7, which represent the Na^+ and K^+ adducts of Temno-AKH, and its sequence was confirmed by MALDI-PSD. The protonated form of AKH is not usually detected using MALDI-TOF MS ([Audsley and Weaver, 2003]). Fraction 31 from t ...

[2] = system: semi-isolated Z. atratus heart; conditions: ref Skonieczna and Rosinski 2004; cited from earlier work
Description: The most prominent ion signal (1257.8) in both the brain and CC/CA corresponds to leucomyosuppressin, a member of the FMRFamide family first characterized from the cockroach L. maderae ([Holman et al. 1986a]).

For “GRWGGFA [Trica-NVP-4 trunc, truncated NVP-like peptide-4 (GRWGGFA)]”, the “chronotropic effect on heart contractile activity (in words)” value (shortened to “chronotropic effect”) [1] was “no effect on heart activity” and the “chronotropic effect” value ([1]; listed as NVP-4 trunc.) was “no effect on heart contractile activity”.
For “PFCNAFTGCa [CCAP, crustacean cardioactive peptide]”, the “effect on contractions of the myocardium of T. molitor” value (heart of T. molitor; ref Furuya et al. 1993) is given as “stimulate contractions of the myocardium”.
For Proctolin, the “effect on beetle heart contractions” value (heart muscles in beetles) is listed as “stimulates contractions of the heart muscles”.
For SPPFAPRLa [Pyrokinin 2], the “chronotropic effect” value [1] was “minor positive chronotropic effect” and the “chronotropic effect” value ([1]; listed as PK 2) was “neither synthetic PK 2 nor the corresponding HPLC fraction (25) of CC/CA extract are active”.
In the case of leucomyosuppressin [LMS], the “cardioinhibition in Z. atratus” value [2] is given as “dose-dependent reversible cardioinhibition”, the “inhibition of heart contractile activity (percentage change in the control frequency of heart contraction)” value ([1]; means ± SEM) is given as 30% and the “cardioinhibition in T. molitor” value (heart of T. molitor; ref Skonieczna and Rosinski 2004) is given as “dose-dependent reversible cardioinhibition”.
For pELNFSPNWa [AKH], the “effect on beetle heart contractions” value (heart muscles in beetles) is listed as “positive chronotropic effects”.
With pETSDDYGHLRFa [sulfakinin 1] the “chronotropic effect” value [1] was “Neither sulfakinin 1 nor fraction 22 from the brain had any significant action; also recorded: no significant effects”.
For pETSFTPRLa [Lem-PK], the “stimulatory activity on the heart of T. molitor” value (heart of T. molitor; ref Rosinski 1995) is listed as “very little stimulatory activity”.
